Experimental data published in patent US20200087340A1, “LIF/LIFR ANTAGONIST IN ONCOLOGY AND NONMALIGNANT DISEASES” (Evestra, Inc., priority 2018, published 2020).

What was measured:
[1] = tested on: SN12C; test: NCI-60 screening, Renal Cancer; assay type: cell-based, human
[2] = tested on: MCF7; test: NCI-60 screening, Breast Cancer; assay type: cell-based, human
[3] = tested on: HOP-62; test: NCI-60 screening, Non-Small Cell Lung Cancer; assay type: cell-based, human
[4] = tested on: UACC-62; test: NCI-60 screening, Melanoma; assay type: cell-based, human
[5] = tested on: human endometrial stromal cells (HESC); test: Decidualization assay, phalloidin staining of actin cytoskeleton; assay type: cell-based
Experimental: Decidualization studies: The above compounds were investigated originally for the treatment of endometriosis. The compounds were tested in a decidualization assay using human endometrial stromal fibroblast (HESC) cells. In preparation for the possibility of embryonic attachment, the stromal cells in the endometrium undergo extensive waves of proliferation, remodeling, and terminal differentiation that transforms the endometrium into an endocrine gland, called decidua. This transformation is called decidualization and it is under the control by ovarian hormones.
The level of apoptosis increases from the proliferative phase through menstrual cycle and peaks at menses. […] However if the cells are subjected to conditions that induce decidualization, stromal cells will begin to differentiate instead of undergoing apoptosis.
Rationale of this assay is described above in mechanism of action studies section. Briefly, human stromal endometrial cells were plated in the presence and absence of progesterone and allow undergoing decidualization. The cells treated with test compounds of different concentrations and stained for actin cytocketal morphology using phalloidin staining and monitored under fluorescent microscope.

[6] = tested on: UACC-257; test: NCI-60 screening, Melanoma; assay type: cell-based, human
[7] = tested on: A549/ATCC; test: NCI-60 screening, Non-Small Cell Lung Cancer; assay type: cell-based, human
[8] = tested on: MDA-MB-435; test: NCI-60 screening, Melanoma; assay type: cell-based, human
[9] = tested on: RPMI-8226; test: NCI-60 screening, Leukemia; assay type: cell-based, human
[10] = tested on: TK-10; test: NCI-60 screening, Renal Cancer; assay type: cell-based, human
[11] = tested on: IGROV1 (Ovarian) Xenograft; test: Tumor xenograft study, IGROV1; assay type: in vivo, mice
Experimental: Uniform suspensions of human breast cancer MDA-MB-231 and human ovarian cancer IGROV1 cells (2×10^6) in 100 μL (0.02 carboxymethyl cellulose in phosphate buffered saline) were injected subcutaneously into the right and left flanks of 4- to 5-week-old female athymic nude mice (Charles River Laboratories). After 10 days, when the tumor […] reaches 100 mm^3, the mice were randomly allocated to 3 groups of each containing 6 animals. […] All drug was suspended in PBS followed by sonication (15 seconds with an intermittent interval of 5 seconds) for 1 minute. Tumors were allowed to reach palpability before drug intervention. Tumor size was measured every 3 days using digital Vernier Calipers and tumor volume was calculated using the ellipsoid formula [D×(d2)]/2, where D is the large diameter of the tumor and d represents the small diameter. On day 31, the mice were euthanized and tumors were harvested for protein and gene expression studies. […] FIG. 6B depicts a graph of tumor volume vs. time for the administration of EC300 at 2.5 mg/kg twice weekly in the MDA-MB-231 (TNBC) Xenograft. […] FIG. 7 depicts a graph of tumor volume vs. time for the administration of EC300 at 5 mg/kg 5 days per week in the IGROV1 (Ovarian) Xenograft. […] STAT3 phosphorylation is reduced in tumors that underwent treatment compared to control which is an indication of LIF downstream target.

[12] = tested on: LOX IMVI; test: NCI-60 screening, Melanoma; assay type: cell-based, human
[13] = tested on: HS 578T; test: NCI-60 screening, Breast Cancer; assay type: cell-based, human
[14] = tested on: NCI-H332M; test: NCI-60 screening, Non-Small Cell Lung Cancer; assay type: cell-based, human
[15] = tested on: ACHN; test: NCI-60 screening, Renal Cancer; assay type: cell-based, human
[16] = tested on: KM12; test: NCI-60 screening, Colon Cancer; assay type: cell-based, human
[17] = tested on: SK-MEL-2; test: NCI-60 screening, Melanoma; assay type: cell-based, human
[18] = tested on: SF-295; test: NCI-60 screening, CNS Cancer; assay type: cell-based, human
[19] = tested on: SF-268; test: NCI-60 screening, CNS Cancer; assay type: cell-based, human
[20] = tested on: NCI-H226; test: NCI-60 screening, Non-Small Cell Lung Cancer; assay type: cell-based, human
[21] = tested on: HCT-15; test: NCI-60 screening, Colon Cancer; assay type: cell-based, human

Question: What does the source list for `C#CC(F)(F)[C@]1(O)CCC2C3CCC4=CC(=O)CCC4=C3C(c3ccc(C4CC4)cc3)C[C@@]21C` (stereo partly drawn) [EC330, 17α-(1,1-difluoro-2-propyn-1-yl)-17β-hydroxy-11β-[4-p-(cyclopropyl)phenyl]estra-4,9-dien-3-one]?
Answer: TGI (log10TGI) [1]: −4.58; TGI (log10TGI) [2]: −4.96; TGI (log10TGI) [3]: −6.79; TGI (log10TGI) [4]: −5.27; actin cytoskeletal disruption (phalloidin staining) [5]: cytoskeletal disruption; TGI (log10TGI) [6]: >−4.00; TGI (log10TGI) [7]: −4.61; TGI (log10TGI) [8]: −5.03; TGI (log10TGI) [9]: −6.24; TGI (log10TGI) [10]: −4.91; antitumor activity ([11]; 5 mg/kg (5 days per week), 4 weeks, IGROV1 xenograft): potent antitumor activity; apoptosis in xenograft tumors ([11]; IGR-OV1 ovarian cancer xenograft tumors): induced apoptosis dose dependently; tumor growth ([11]; ovarian cancer model): significantly reduced; STAT3 phosphorylation in tumors ([11]; treated compared to control): reduced; TGI (log10TGI) [12]: <−8.00; TGI (log10TGI) [13]: −4.99; TGI (log10TGI) [14]: >−4.00; TGI (log10TGI) [15]: −5.09; TGI (log10TGI) [16]: −5.91; TGI (log10TGI) [17]: −5.19; TGI (log10TGI) [18]: <−8.00; TGI (log10TGI) [19]: −6.43; TGI (log10TGI) [20]: −5.04; TGI (log10TGI) [21]: >−4.00
